Measured values taken from patent US20240300959A1, “BALASUBRAMIDE DERIVATIVE AND USE THEREOF IN PREPARATION OF MEDICINE FOR TREATING ACUTE LUNG INJURY” (Guangdong Pharmaceutical University, priority 2023, published 2024).

Legend:
RAW264.7 cells = test: Cytotoxicity test, CCK-8 cell viability of RAW264.7 cells (24 h); format: cell-based, mice; conditions: 10 μM, RAW264.7 cell viability
Experimental: RAW264.7 cells were inoculated into a 96-well plate at a density of 1×10^5 per well. When the cell density was 70%-80%, the RAW264.7 cells were pretreated with 10 mM working solutions prepared from 18 balasubramide derivatives at a final concentration of 10 μM for 24 h, and then the cell viability was determined by a CCK-8 method.

[1] = tested on: TNF-α in RAW264.7 macrophages stimulated by lipopolysaccharide; test: TNF-α ELISA in cell supernatant of LPS-stimulated RAW264.7 macrophages; format: cell-based, mice; conditions: Mus musculus, RAW264.7, 2 h, 10 μM, 3 h pretreatment, LPS 100 ng/mL 2 h, RAW264.7; read-out: Percentage of TNF-α in a model group (%)
Experimental: RAW264.7 cells were inoculated into a 96-well plate at a density of 1×10^5 per well. When the cell density was 70%-80%, 18 balasubramide derivatives were prepared into 10 mM working solutions with DMSO, respectively, and then used to pretreat mononuclear macrophages RAW264.7 of mice at a final concentration of 10 μM. After 3 h, lipopolysaccharide (LPS, 100 ng/mL) was added into all wells for action for 2 h except for a control group. A supernatant was collected for later use, and the expression level of an inflammatory factor TNF-α in the cell supernatant was detected according to an operation instruction of a commercial ELISA kit.
RAW264.7 cells were inoculated into a 96-well plate at a density of 1×10^5 per well. When the cell density was 70%-80%, the RAW264.7 cells were pretreated with (+)3C-20 ([…]). After 3 h, lipopolysaccharide (LPS, 100 ng/mL) was added into all wells for action for 2 h except for a control group. The expression level of an inflammatory factor TNF-α in a cell supernatant was detected according to an operation instruction of a commercial ELISA kit, and the cell viability at different administration concentrations of (+)3C-20 was determined according to an operation instruction of a CCK-8 kit.

[2] = tested on: mice with acute lung injury caused by intratracheal instillation of lipopolysaccharide; test: Acute lung injury caused by lung exposure to bacterial endotoxin (intratracheal instillation of LPS); format: in vivo, ICR mice
Experimental: Grouping, administration and modeling of animals: Male ICR mice were used as experimental animals, which were randomly divided into a control group, a model group, a positive administration group and administration groups according to the body weight. The control group and the model group were administered with a solvent by intraperitoneal injection (the solvent was prepared from DMSO, Kolliphor HS15 and Saline at a ratio of 1:2:7), the positive administration group was administered with 5 mg/kg dexamethasone by intraperitoneal injection, and the administration groups were administered with (+)3C-20 at a concentration of 10 mg/kg and 50 mg/kg, respectively, by intraperitoneal injection. The dexamethasone and the (+)3C-20 were dissolved in the above solvent and were clear and transparent. The administration was continued for 3 days. 2 h after the last administration, the mice were anesthetized with 2.5% isoflurane, necks were disinfected, cortices of the necks were cut, and tracheae were separated. All other groups were administered with 50 μL of 10 mg/mL LPS (LPS dissolved in Saline) at a dose of 20 mg/kg by instillation while the control group was administered with 50 μL of Saline by intratracheal instillation (it.), and the cortices were sutured. 6 h after the instillation of LPS, the mice were sacrificed, and serum and lung tissues were taken for later use. Body weight and lung index: The mice were weighed and randomly divided on day 1 and continuously weighed for 3 days before administration. 2 h after the last administration, the mice were administered with 50 μL of […] LPS by intratracheal instillation. 6 h later, the mice were dissected, and the lungs were taken and weighed.
On day 3, 6 h after the intratracheal instillation of LPS, a part of the mice were subjected to perfusion with PBS and treated with paraformaldehyde to fix the right lobe of the lungs, another part of the mice were dissected to obtain lungs, and the lungs were frozen with liquid nitrogen for later use. The fixed right lungs were stained with hematoxylin-eosin (H&E) after dehydration, paraffin embedding and sectioning. 40 mg of the frozen lungs were cut, 300 μL of an RIPA lysis buffer was added thereto and homogenized by starting for 45 s and stopping for 15 s at a frequency of 60 Hz in 4 cycles for full lysis, and then centrifuged at 12,000 rpm at 4° C. A supernatant was taken, the protein concentration was calibrated and adjusted with a BCA protein assay kit, and then the level of an inflammatory factor TNF-α in lung tissue homogenates of various groups was detected by a commercial TNF-α ELISA kit. Results are shown in Table 10, FIG. 10-1 and FIG. 10-2.
A small amount of frozen lung tissues were taken, a Trizol lysis reagent was added thereto and fully ground, RNA was extracted according to an operation instruction of an RNA extraction kit, and the expression of inflammation related genes in the lung tissues was detected by an RT-PCR technology. Experimental results are shown in Table 11, FIG. 11-1 and FIG. 11-2.

[3] = tested on: mice with sepsis and lung injury caused by intraperitoneal injection of lipopolysaccharide; test: Acute lung injury caused by sepsis (intraperitoneal injection of lipopolysaccharide); format: in vivo, ICR mice
Experimental: Administration and grouping of animals: Male ICR mice were used as experimental animals, which were randomly divided into a control group, a model group, a positive administration group and administration groups according to the body weight. The control group and the model group were administered with a solvent by intraperitoneal injection (the solvent was prepared from DMSO, Kolliphor HS15 and Saline at a ratio of 1:2:7), the positive administration group was administered with 5 mg/kg dexamethasone (DEX) by intraperitoneal injection, and the administration groups were administered with (+)3C-20 at a concentration of 10 mg/kg and 50 mg/kg, respectively, by intraperitoneal injection. The dexamethasone and the (+)3C-20 were dissolved in the above solvent and were clear and transparent. The administration was continued for 3 days. 2 h after the last administration, all the other groups were administered with LPS (10 mg/kg) by intraperitoneal injection while the control group was administered with an equal volume of normal saline by intraperitoneal injection. Body weight and lung index: The mice were weighed and randomly divided on day 1 and continuously weighed for 3 days before administration, and growth conditions of the mice were measured by statistics. The mice were administered with LPS by intraperitoneal injection 2 h after administration on day 3, then the mice were dissected 6 h later, and the lungs were taken, weighed and recorded.
On day 3, 6 h after the intraperitoneal injection of LPS, whole blood was collected from eye sockets and then subjected to centrifugation to prepare serum, and the serum was frozen at −80° C. The lungs were subjected to perfusion with PBS and fixed by paraformaldehyde, and the fixed lungs were stained with hematoxylin-eosin (H&E) after dehydration, paraffin embedding and sectioning. The serum was tested by a commercial TNF-α ELISA kit. Histopathological results and data statistics are shown in FIG. 7-1, FIG. 7-2 and Table 7.
A small amount of frozen lung tissues were taken and fully ground, and the expression of inflammation related genes in the lung tissues was detected by an RT-PCR technology according to an operation instruction of an RNA extraction kit.

[4] = 5 mg/kg i.p., lung tissue RT-PCR, intratracheal LPS
[5] = 5 mg/kg intraperitoneal, intratracheal LPS model, in g (unit assumed)
[6] = 5 mg/kg i.p., lung tissue RT-PCR, i.p. LPS
[7] = 5 mg/kg intraperitoneal, i.p. LPS sepsis model, in g (unit assumed)

## O=C(CCc1ccc(C(F)(F)F)cc1)O[C@@H]1C(=O)NCCc2c([nH]c3ccc(F)cc23)[C@H]1c1ccc(C(F)(F)F)cc1 [(+)-B3d]
RAW264.7 cells
  Percentage of CCK-8 in a model group (%): 90.33 ± 5.86%
[1]
  activity at 10 µM: 101 ± 4.46%

## O=C(CCc1ccc(C(F)(F)F)cc1)O[C@@H]1C(=O)NCCc2c([nH]c3ccc(OC(=O)c4ccc([N+](=O)[O-])cc4)cc23)[C@H]1c1ccc(C(F)(F)F)cc1 [(+)-D7c]
RAW264.7 cells
  Percentage of CCK-8 in a model group (%): 109.17 ± 0.16%
[1]
  activity at 10 µM: 74.5 ± 3.55%

## O=C(CCc1ccc(C(F)(F)F)cc1)O[C@@H]1C(=O)NCCc2c([nH]c3ccc(Br)cc23)[C@H]1c1ccc(C(F)(F)F)cc1 [(+)-B3e]
RAW264.7 cells
  Percentage of CCK-8 in a model group (%): 95.66 ± 4.02%
[1]
  activity at 10 µM: 76.2%

## C[C@@H]1C[C@H]2[C@@H]3CCC4=CC(=O)C=C[C@]4(C)[C@@]3(F)[C@@H](O)C[C@]2(C)[C@@]1(O)C(=O)CO [Dexamethasone, dexamethasone, reference compound]
[2]; 5 mg/kg i.p., 6 h after intratracheal LPS
  Content of TNF-α in a lung tissue homogenate (% of Model): 54.882 ± 6.836 % of Model
[2]; 5 mg/kg i.p., 6 h after intratracheal LPS, H&E lung sections
  Area percentage of alveolar cells (%): 34.322 ± 2.452 %
[2]; [4]
  Change multiple of COX-2: 2.75 ± 0.24
  Change multiple of IL-1β: 12.38 ± 1.28
  Change multiple of IL-6: 14.75 ± 2.71
  Change multiple of TNF-α: 18.63 ± 2.26
  Change multiple of iNOS: 10.02 ± 1.78
[2]; 5 mg/kg intraperitoneal 3 days, 6 h after intratracheal LPS
  Lung index (%): 0.591 ± 0.008 %
[2]; [5]
  Body weight (Day 1): 27.51 ± 0.11
  Body weight (Day 2): 28.75 ± 0.17
  Body weight (Day 3): 29.48 ± 0.17
[3]; 5 mg/kg i.p., 6 h after i.p. LPS
  Content of TNF-α in serum (% of Model): 40.09 ± 2.26 % of Model
[3]; 5 mg/kg i.p., 6 h after i.p. LPS, H&E lung sections
  Area percentage of alveolar cells (%): 32.2 ± 0.95 %
[3]; [6]
  Change multiple of IL-1β: 8.65 ± 1.04
  Change multiple of IL-6: 40.56 ± 7.55
  Change multiple of TNF-α: 6.09 ± 0.82
  Change multiple of iNOS: 2.61 ± 0.39
[3]; 5 mg/kg intraperitoneal 3 days, 6 h after i.p. LPS 10 mg/kg
  Lung index (%): 0.649 ± 0.01 %
[3]; [7]
  Body weight (Day 1): 25.11 ± 0.52
  Body weight (Day 2): 26.23 ± 0.38
  Body weight (Day 3): 26.97 ± 0.45

## CC(C)(C)OC(=O)N[C@H](CC(=O)O[C@@H]1C(=O)NCCc2c([nH]c3ccccc23)[C@H]1c1ccc(C(F)(F)F)cc1)c1ccc(C(F)(F)F)cc1 [(+)-c5]
RAW264.7 cells
  Percentage of CCK-8 in a model group (%): 110.66 ± 0.55%
[1]
  activity at 10 µM: 71.77 ± 0.56%

## COc1ccc2[nH]c3c(c2c1)CCNC(=O)[C@@H](OC(=O)CCc1ccc(C(F)(F)F)cc1)[C@@H]3c1ccc(C(F)(F)F)cc1 [(+)-B3c]
RAW264.7 cells
  Percentage of CCK-8 in a model group (%): 96.16 ± 4.12%
[1]
  activity at 10 µM: 84.5%

## C=CCn1c2c(c3ccccc31)CCNC(=O)[C@@H](OC(=O)CCc1ccc(C(F)(F)F)cc1)[C@@H]2c1ccc(C(F)(F)F)cc1 [(+)-c4]
RAW264.7 cells
  Percentage of CCK-8 in a model group (%): 110.28 ± 1.56%
[1]
  activity at 10 µM: 96.1 ± 1.48%

## O=C(CCc1ccc(C(F)(F)F)cc1)O[C@@H]1C(=O)NCCc2c([nH]c3cccc(F)c23)[C@H]1c1ccc(C(F)(F)F)cc1 [(+)-B3a]
RAW264.7 cells
  Percentage of CCK-8 in a model group (%): 103.22 ± 1.79%
[1]
  activity at 10 µM: 91.2 ± 3.03%

## O=C1NCCc2c([nH]c3ccccc23)[C@@H](c2ccc(C(F)(F)F)cc2)[C@@H]1O [(+)-3C]
RAW264.7 cells
  Percentage of CCK-8 in a model group (%): 105.39 ± 4.26%
[1]
  activity at 10 µM: 86.4 ± 3.06%
